For one experiment, the system named is HCT116 xenograft tumours. The experiment in a line: HCT116 subcutaneous xenograft model. The following applies: oral 100 mg/kg on days 1, 8 and 15; day 20. The format is in vivo, Male athymic nude mice. The method, then:
Male athymic nude mice bearing HCT116 xenograft tumours were give an oral dose of 100 mg/kg atropisomer A-2 on days 1, 8 and 15 and the tumour volumes were measured over 3 weeks. Tumour volumes in a control group of tumour-bearing mice, who had received vehicle only at the same time points were also measured.

Experiment [1] concerns the target T1, panel of ninety-seven kinases (Homo sapiens, UniProt Q8IYT8).
T1 construct: purchased DiscoverX; host or cells: T7 phage in E. coli (BL21-derived) for most kinases; HEK-293 for the rest
The experiment in a line: DiscoverX KinomeScreen kinase selectivity competition binding assay. The following applies: ULK2; read-out: % Ctrl @ 3 μM. As to the method:
(§1) Atropisomer A-2 has been tested for off-target activity against a panel of ninety-seven kinases distributed across the kinome at a concentration of 3 μM using the DiscoverX KinomeScreen assay. The DiscoverX KinomeScreen assay is a site-directed competition binding assay which measures the binding affinity of a compound to a kinase, by use of a solid supported control compound which can bind or capture the kinases in solution. In the absence of a kinase-inhibitor test compound, all of the kinase will bind to the solid support. If a kinase-inhibitor test compound is added to the assay mix, the amount of kinase binding to the solid support will be reduced, the extent of reduction being dependent on the potency of the test compound as a kinase inhibitor. […] For most assays, kinase-tagged T7 phage strains were grown in parallel in 24-well blocks in an E. coli host derived from the BL21 strain. E. coli were grown to log-phase and infected with T7 phage from a frozen stock (multiplicity of infection=0.4) and incubated with shaking at 32° C. until lysis (90-150 minutes). The lysates were centrifuged (6,000×g) and filtered (0.2 μm) to remove cell debris. The remaining kinases were produced in HEK-293 cells and subsequently tagged with DNA for qPCR detection. Streptavidin-coated magnetic beads were treated with biotinylated small molecule ligands for 30 minutes at room temperature to generate affinity resins for kinase assays. The liganded beads were blocked with excess biotin and washed with blocking buffer (SeaBlock (Pierce), 1% BSA, 0.05% Tween 20, 1 mM DTT) to remove unbound ligand and to reduce non-specific phage binding. […] Test compounds were prepared as 40× stocks in 100% DMSO and directly diluted into the assay. All reactions were performed in polypropylene 384-well plates in a final volume of 0.02 ml. […] The beads were then re-suspended in elution buffer (1×PBS, 0.05% Tween 20, 0.5 μM non-biotinylated affinity ligand) and incubated at room temperature with shaking for 30 minutes. The kinase concentration in the eluates was measured by qPCR. Compounds that bind the kinase active site and directly (sterically) or indirectly (allosterically) prevent kinase binding to the immobilized ligand, will reduce the amount of kinase captured on the solid support. […] The strength of binding of the test molecule to the kinase can be expressed as the percent control (% Ctrl) The compound(s) were screened at 3000 nM concentration, and results for primary screen binding interactions are reported as ‘% Ctrl’, where lower numbers indicate stronger hits in the matrix on the following page(s). [formula] • negative control=DMSO (100% Ctrl) • positive control=control compound (0% Ctrl)

Experiment [2] has as its target T2, panel of ninety-seven kinases (Homo sapiens, UniProt Q15303).
T2 construct: purchased DiscoverX; host or cells: T7 phage in E. coli (BL21-derived) for most kinases; HEK-293 for the rest
The description is as above. The following applies: ERBB4; read-out: % Ctrl @ 3 μM. As to the method: as §1

Experiment [3] concerns the target T3, panel of ninety-seven kinases (Homo sapiens, UniProt Q15831).
T3 construct: purchased DiscoverX; host or cells: T7 phage in E. coli (BL21-derived) for most kinases; HEK-293 for the rest
Described as above. Particulars: STK11; read-out: % Ctrl @ 3 μM. The method, then: as §1

The target of experiment [4] is T4, panel of ninety-seven kinases (Homo sapiens, UniProt O15111).
T4 construct: purchased DiscoverX; host or cells: T7 phage in E. coli (BL21-derived) for most kinases; HEK-293 for the rest
T4 sequence (O15111 whole entry): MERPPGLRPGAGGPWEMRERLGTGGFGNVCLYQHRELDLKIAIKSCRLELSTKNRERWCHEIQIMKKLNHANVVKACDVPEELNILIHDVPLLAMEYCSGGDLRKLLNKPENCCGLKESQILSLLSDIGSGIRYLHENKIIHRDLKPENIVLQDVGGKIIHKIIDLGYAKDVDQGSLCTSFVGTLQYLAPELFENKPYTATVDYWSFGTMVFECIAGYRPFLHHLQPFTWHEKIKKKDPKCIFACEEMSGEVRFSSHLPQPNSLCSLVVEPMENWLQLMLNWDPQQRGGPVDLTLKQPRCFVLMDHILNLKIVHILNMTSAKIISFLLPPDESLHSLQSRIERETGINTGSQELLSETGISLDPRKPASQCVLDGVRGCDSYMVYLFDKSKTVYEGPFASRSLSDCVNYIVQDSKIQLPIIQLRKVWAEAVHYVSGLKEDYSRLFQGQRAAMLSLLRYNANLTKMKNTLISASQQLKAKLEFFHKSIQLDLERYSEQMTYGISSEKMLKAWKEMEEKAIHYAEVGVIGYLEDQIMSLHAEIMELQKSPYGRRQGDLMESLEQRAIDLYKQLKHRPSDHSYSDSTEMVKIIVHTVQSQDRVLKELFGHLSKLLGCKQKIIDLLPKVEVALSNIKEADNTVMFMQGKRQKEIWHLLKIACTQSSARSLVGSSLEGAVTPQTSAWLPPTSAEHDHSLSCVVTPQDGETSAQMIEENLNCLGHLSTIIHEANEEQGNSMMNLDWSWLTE
The experiment is described as above. Particulars: CHUK; read-out: % Ctrl @ 3 μM. As to the method: as §1

Experiment [5] addresses T5, panel of ninety-seven kinases (Homo sapiens, UniProt Q9HBH9).
T5 construct: purchased DiscoverX; host or cells: T7 phage in E. coli (BL21-derived) for most kinases; HEK-293 for the rest
The description is as above. Particulars: MKNK2; read-out: % Ctrl @ 3 μM. The method, then: as §1

Experiment [6] deals with T6, panel of ninety-seven kinases (Homo sapiens, UniProt P48730).
T6 construct: purchased DiscoverX; host or cells: T7 phage in E. coli (BL21-derived) for most kinases; HEK-293 for the rest
T6 sequence (P48730 whole entry): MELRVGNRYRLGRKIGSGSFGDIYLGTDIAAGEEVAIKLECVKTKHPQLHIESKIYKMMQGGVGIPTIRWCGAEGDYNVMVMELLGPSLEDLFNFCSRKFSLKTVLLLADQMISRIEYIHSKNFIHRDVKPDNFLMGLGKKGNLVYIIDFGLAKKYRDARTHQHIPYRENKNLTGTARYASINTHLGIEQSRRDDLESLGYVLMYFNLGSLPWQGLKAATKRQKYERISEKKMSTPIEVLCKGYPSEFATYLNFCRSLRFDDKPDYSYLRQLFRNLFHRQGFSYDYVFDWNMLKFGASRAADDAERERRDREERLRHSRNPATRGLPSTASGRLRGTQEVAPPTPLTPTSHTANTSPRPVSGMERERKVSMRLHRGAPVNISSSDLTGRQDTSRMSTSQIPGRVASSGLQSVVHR
The description is as above. The following applies: CSNK1D; read-out: % Ctrl @ 3 μM. The method, then:
as §1

The target in experiment [7] is T7, panel of ninety-seven kinases (Homo sapiens, UniProt Q05397).
T7 construct: purchased DiscoverX; host or cells: T7 phage in E. coli (BL21-derived) for most kinases; HEK-293 for the rest
T7 sequence (Q05397 whole entry): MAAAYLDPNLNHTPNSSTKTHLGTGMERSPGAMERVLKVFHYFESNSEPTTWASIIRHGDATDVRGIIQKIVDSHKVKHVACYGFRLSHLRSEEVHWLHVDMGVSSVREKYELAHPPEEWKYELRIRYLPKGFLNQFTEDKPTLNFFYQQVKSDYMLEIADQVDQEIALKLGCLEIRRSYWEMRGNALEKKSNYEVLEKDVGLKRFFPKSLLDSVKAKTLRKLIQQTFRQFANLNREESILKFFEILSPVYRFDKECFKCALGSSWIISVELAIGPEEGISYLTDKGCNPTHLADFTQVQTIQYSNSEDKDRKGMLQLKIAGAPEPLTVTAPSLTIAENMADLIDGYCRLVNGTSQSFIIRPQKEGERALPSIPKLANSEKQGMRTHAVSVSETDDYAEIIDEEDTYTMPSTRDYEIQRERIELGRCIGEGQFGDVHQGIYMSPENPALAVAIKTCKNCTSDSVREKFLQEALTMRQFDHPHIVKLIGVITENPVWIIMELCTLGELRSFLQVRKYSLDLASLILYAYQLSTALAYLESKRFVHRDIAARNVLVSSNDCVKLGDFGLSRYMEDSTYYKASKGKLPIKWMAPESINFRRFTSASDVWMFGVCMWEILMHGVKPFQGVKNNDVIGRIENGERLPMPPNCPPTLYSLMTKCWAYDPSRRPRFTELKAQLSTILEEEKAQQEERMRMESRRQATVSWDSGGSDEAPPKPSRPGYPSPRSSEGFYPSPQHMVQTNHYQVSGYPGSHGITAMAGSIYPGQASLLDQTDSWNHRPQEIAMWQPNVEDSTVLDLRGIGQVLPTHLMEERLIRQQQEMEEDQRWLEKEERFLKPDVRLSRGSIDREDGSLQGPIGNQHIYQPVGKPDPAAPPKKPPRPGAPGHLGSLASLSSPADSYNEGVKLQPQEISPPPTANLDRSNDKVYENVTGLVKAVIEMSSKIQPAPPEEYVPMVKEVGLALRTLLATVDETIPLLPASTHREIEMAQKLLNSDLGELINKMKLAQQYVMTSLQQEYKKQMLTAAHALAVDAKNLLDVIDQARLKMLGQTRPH
The description is as above. Particulars: PTK2; read-out: % Ctrl @ 3 μM. As to the method: as §1

Experiment [8] addresses T8, panel of ninety-seven kinases (Homo sapiens, UniProt Q02750).
T8 construct: purchased DiscoverX; host or cells: T7 phage in E. coli (BL21-derived) for most kinases; HEK-293 for the rest
The description is as above. The following applies: MAP2K1; read-out: % Ctrl @ 3 μM. As to the method: as §1

Experiment [9] concerns the target T9, panel of ninety-seven kinases (Homo sapiens, UniProt P17612).
T9 construct: purchased DiscoverX; host or cells: T7 phage in E. coli (BL21-derived) for most kinases; HEK-293 for the rest
The description is as above. The following applies: PRKACA; read-out: % Ctrl @ 3 μM. The method, then: as §1

Experiment [10] deals with T10, panel of ninety-seven kinases (Homo sapiens, UniProt P36507).
T10 construct: purchased DiscoverX; host or cells: T7 phage in E. coli (BL21-derived) for most kinases; HEK-293 for the rest
T10 sequence (P36507 whole entry): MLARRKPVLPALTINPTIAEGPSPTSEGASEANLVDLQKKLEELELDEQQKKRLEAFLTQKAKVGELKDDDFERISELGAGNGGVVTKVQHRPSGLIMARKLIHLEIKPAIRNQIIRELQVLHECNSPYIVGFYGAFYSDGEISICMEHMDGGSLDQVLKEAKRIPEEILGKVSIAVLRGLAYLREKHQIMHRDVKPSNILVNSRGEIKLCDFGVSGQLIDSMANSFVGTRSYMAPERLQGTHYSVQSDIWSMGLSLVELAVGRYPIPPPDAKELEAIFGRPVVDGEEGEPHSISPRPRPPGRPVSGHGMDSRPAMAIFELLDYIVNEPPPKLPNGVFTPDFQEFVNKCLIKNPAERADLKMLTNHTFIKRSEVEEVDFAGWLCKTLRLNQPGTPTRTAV
The experiment is described as above. The following applies: MAP2K2; read-out: % Ctrl @ 3 μM. As to the method:
as §1

Experiment [11] has as its target T11, panel of ninety-seven kinases (Homo sapiens, UniProt P30530).
T11 construct: purchased DiscoverX; host or cells: T7 phage in E. coli (BL21-derived) for most kinases; HEK-293 for the rest
The experiment is described as above. The following applies: AXL; read-out: % Ctrl @ 3 μM. As to the method:
as §1

Experiment [12] deals with T12, panel of ninety-seven kinases (Homo sapiens, UniProt P08069).
T12 construct: purchased DiscoverX; host or cells: T7 phage in E. coli (BL21-derived) for most kinases; HEK-293 for the rest
The experiment is described as above. The following applies: IGF1R; read-out: % Ctrl @ 3 μM. As to the method: as §1

Experiment [13] deals with T13, panel of ninety-seven kinases (Homo sapiens, UniProt Q9H093).
T13 construct: purchased DiscoverX; host or cells: T7 phage in E. coli (BL21-derived) for most kinases; HEK-293 for the rest
T13 sequence (Q9H093 whole entry): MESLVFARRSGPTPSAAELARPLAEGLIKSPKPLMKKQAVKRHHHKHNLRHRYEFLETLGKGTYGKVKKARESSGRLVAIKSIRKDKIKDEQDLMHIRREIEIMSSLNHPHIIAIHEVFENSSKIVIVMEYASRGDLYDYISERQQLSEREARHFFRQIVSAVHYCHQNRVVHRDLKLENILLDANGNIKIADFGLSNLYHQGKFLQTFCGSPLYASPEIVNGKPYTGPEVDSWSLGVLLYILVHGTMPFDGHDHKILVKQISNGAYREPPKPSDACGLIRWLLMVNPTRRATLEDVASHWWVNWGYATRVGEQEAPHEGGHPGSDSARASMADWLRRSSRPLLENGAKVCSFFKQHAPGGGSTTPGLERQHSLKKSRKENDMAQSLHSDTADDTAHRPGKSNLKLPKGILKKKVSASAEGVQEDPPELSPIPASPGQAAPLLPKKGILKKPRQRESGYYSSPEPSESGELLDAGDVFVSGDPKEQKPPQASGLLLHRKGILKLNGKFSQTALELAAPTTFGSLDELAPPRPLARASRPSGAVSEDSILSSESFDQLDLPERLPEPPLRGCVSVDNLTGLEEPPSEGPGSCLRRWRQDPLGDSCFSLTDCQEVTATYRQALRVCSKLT
Described as above. Particulars: NUAK2; read-out: % Ctrl @ 3 μM. The method, then:
as §1

Experiment [14] has as its target T14, panel of ninety-seven kinases (Homo sapiens, UniProt Q9Y463).
T14 construct: purchased DiscoverX; host or cells: T7 phage in E. coli (BL21-derived) for most kinases; HEK-293 for the rest
The description is as above. Particulars: DYRK1B; read-out: % Ctrl @ 3 μM. The method, then: as §1

For experiment [15], the target named is T15, panel of ninety-seven kinases (Homo sapiens, UniProt P36896).
T15 construct: purchased DiscoverX; host or cells: T7 phage in E. coli (BL21-derived) for most kinases; HEK-293 for the rest
Described as above. The following applies: ACVR1B; read-out: % Ctrl @ 3 μM. The method, then: as §1

Experiment [16] concerns the target T16, panel of ninety-seven kinases (Homo sapiens, UniProt Q9P1W9).
T16 construct: purchased DiscoverX; host or cells: T7 phage in E. coli (BL21-derived) for most kinases; HEK-293 for the rest
The experiment is described as above. Particulars: PIM2; read-out: % Ctrl @ 3 μM. The method, then: as §1

Experiment [17] has as its target T17, panel of ninety-seven kinases (Homo sapiens, UniProt P80192).
T17 construct: purchased DiscoverX; host or cells: T7 phage in E. coli (BL21-derived) for most kinases; HEK-293 for the rest
The experiment is described as above. Particulars: MAP3K9; read-out: % Ctrl @ 3 μM. The method, then: as §1

The next experiment has as its system U87-Luc cells. The experiment in a line: U87-Luc orthotopic xenograft model. Type of experiment: in vivo, male athymic nude mice. Particulars: oral 100 mg/kg on days 1, 4, 7, 10 and 13; Day 15. The method, then: U87-Luc cells were intracerebrally implanted into the brains of male athymic nude mice and tumour growth was monitored by bioluminescent signal. In the treatment group animals were given an oral dose of 100 mg/kg of atropisomer A-2 on days 1, 4, 7, 10 and 13. The control group animals were given vehicle only.

T16 sequence (Q9P1W9 whole entry): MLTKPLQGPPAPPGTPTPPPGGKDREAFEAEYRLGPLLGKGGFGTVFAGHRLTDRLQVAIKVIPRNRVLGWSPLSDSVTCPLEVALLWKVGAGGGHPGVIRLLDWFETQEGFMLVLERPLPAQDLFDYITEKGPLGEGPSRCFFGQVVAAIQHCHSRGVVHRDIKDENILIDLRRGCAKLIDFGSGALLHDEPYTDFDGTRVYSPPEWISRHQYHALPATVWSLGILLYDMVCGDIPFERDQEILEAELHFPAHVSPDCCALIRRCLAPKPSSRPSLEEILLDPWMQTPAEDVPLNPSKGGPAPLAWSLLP
T17 sequence (P80192 whole entry): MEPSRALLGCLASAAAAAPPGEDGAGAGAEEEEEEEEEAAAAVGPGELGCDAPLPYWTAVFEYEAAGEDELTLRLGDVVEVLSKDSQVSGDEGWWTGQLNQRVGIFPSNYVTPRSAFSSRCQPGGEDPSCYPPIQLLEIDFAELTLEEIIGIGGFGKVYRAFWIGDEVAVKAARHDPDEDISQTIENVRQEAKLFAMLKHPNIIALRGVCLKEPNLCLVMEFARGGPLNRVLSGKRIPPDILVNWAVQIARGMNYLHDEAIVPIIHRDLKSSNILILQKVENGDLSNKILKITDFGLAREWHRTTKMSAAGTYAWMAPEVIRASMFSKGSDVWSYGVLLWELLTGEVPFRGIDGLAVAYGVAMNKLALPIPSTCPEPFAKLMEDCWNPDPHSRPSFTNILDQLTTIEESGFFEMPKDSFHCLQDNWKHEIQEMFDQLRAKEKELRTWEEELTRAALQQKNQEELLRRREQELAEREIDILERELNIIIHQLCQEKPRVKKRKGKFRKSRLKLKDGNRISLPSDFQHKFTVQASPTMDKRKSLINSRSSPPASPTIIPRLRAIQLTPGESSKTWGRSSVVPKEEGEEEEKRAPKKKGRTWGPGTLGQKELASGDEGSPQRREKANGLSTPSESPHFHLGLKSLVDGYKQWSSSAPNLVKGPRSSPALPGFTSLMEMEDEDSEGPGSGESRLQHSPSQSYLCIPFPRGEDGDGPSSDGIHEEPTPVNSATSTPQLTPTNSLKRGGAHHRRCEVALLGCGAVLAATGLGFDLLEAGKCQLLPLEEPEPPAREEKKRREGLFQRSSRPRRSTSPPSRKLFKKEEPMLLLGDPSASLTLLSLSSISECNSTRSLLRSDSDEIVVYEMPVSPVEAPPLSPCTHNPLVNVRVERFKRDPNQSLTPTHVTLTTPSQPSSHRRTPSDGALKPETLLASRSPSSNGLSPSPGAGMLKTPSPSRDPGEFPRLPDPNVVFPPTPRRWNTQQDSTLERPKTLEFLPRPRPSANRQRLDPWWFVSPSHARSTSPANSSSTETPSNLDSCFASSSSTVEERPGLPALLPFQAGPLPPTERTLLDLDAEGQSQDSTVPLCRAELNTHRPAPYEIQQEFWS
T8 sequence (Q02750 whole entry): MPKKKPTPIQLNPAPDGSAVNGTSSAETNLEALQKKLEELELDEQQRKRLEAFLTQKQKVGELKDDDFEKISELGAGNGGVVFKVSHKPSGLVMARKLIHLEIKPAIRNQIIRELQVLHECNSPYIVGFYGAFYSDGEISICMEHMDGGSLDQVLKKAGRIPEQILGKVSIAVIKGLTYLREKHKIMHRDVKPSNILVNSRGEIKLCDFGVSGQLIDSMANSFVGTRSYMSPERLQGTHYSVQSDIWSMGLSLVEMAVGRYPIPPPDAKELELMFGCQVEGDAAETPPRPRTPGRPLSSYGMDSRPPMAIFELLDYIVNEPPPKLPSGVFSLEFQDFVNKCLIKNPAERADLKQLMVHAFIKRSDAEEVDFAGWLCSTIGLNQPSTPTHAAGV

As a reminder, the TGI is how far tumour growth fell short of that in controls. High values mean much slowing of growth, low ones little slowing of growth. `CN(C)CCNC(=O)c1ccc(-c2ccc(-c3ccc(Cl)cc3)n2-c2ccccc2C(F)(F)F)cc1` (single isomer, unassigned) [Atropisomer A-2, 4-[5-(4-chlorophenyl)-1-[2-(trifluoromethyl)phenyl]pyrrol-2-yl]-N-[2-(dimethylamino)ethyl]benzamide] displayed a TGI in the experiment on HCT116 xenograft tumours of 60%. Moreover, the percent of control kinase binding to immobilized ligand at 3 µM stood at 93% in experiment [1]; 99% in experiment [2]; 81% in experiment [3]; 100% in [4]; 85% in [5]; 91% in experiment [6]. The percent of control kinase binding to immobilized ligand at 3 µM is 98% in experiment [7]; 84% in experiment [8]; 100% in experiment [9]; 81% in experiment [10]; 93% in experiment [11]; 100% in [12]. For the same compound, the percent of control kinase binding to immobilized ligand at 3 µM in [13] worked out at 99%; in experiment [14], 97%; in experiment [15] it was 96%; in experiment [16], 100%; in experiment [17] it was 96%. Besides, the “tumour bioluminescent signal treated versus control” value in the experiment with U87-Luc cells is “decrease in tumour signal”.

For the origin of these results see US20220348565A1, “PHARMACEUTICAL COMPOUNDS” (SENTINEL ONCOLOGY LIMITED, priority 2019, published 2022).
